Article PMC8050080, “Cannabis sativa terpenes are cannabimimetic and selectively enhance cannabinoid activity” (Scientific Reports, 2021)

Assays:
[1] = system: male and female CD-1 mice; test: Hypothermia (core temperature, rectal thermometer); assay type: in vivo; settings: 10 mg/kg i.p., 30 min, Fig. S6A
Procedure: Changes in core temperature were assessed using a lubricated rectal thermometer placed 1.0 cm into the mouse rectum. Temperature was assessed before treatment and 30 min post-treatment.

[2] = system: male and female CD-1 mice; test: Open field test (hypolocomotion); settings: 10 mg/kg i.p., open field after 10 min, Fig. S6B,C
Procedure: All experiments were performed on male and female CD-1 (a.k.a. ICR) mice obtained from Charles River in age-matched cohorts of 5–6 weeks of age. […] The animals were maintained in an AAALAC-accredited vivarium at the University of Arizona in temperature and humidity-controlled rooms on a 12-h light/dark cycle. Standard chow and water were available ad libitum. […] Mice were randomized to treatment group by randomization of mice to cages upon arrival, and block random assignment of cages to treatment group. The experimenter was blinded to treatment group by the delivery of coded drug vials. The groups were not decoded until all data had been acquired.
The open field test was used to determine potential hypolocomotive properties induced by terpene and cannabinoid treatment. The open field box was a white box with an open top and black floor. The tracking area was 30 cm × 28 cm. Mice were baselined by placing the mouse in the center of the box and recording from a video camera ~ 1.5 m above for a period of 5 min. Mice were then injected with compound and placed back in the open field box 10–15 min post-injection. In follow-up experiments, mice were not baselined, injected with compound, and placed in the open field box from 10 to 15 min. The total distance traveled and mobile time of mice were analyzed using AnyMaze software.

[3] = system: male and female CD-1 mice; test: Tail flick thermal latency test (antinociception); assay type: in vivo
Procedure: Antinociception was tested using the tail flick thermal latency test. Mice were baselined by gently restraining the animal and lowering the distal portion of the tail into a water bath set to 52 °C or 47 °C where stated, and the latency to flick the tail recorded with a stopwatch, with a 10 s cutoff. Mice were then injected with compounds intraperitoneally (i.p.). Thermal latency was then assessed over a time course of 2 h, or at a single time-point as noted. […] For assays using terpene/WIN55,212-2 co-treatment, WIN55,212-2 was co-administered with terpene in the same solution.

**Q.** How did the “effect of istradefyllene alone on temperature” value [1] turn out when CCn1c(=O)c2c(nc(/C=C/c3ccc(OC)c(OC)c3)n2C)n(CC)c1=O [istradefyllene, Istradefyllene, reference compound] was run?
**A.** small but significant hypothermic

**Q.** What about the “effect of istradefyllene alone on locomotion” value [2] of the same compound?
**A.** hyperlocomotive effect

**Q.** Cc1c(C(=O)NN2CCCCC2)nn(-c2ccc(Cl)cc2Cl)c1-c1ccc(Cl)cc1 [Rimonabant, reference compound] was tested. Which “effect of rimonabant pretreatment on morphine-induced antinociception” value ([3]; 10 mg/kg rimonabant i.p., 5.6 mg/kg morphine, Fig. S5A,B) did it give?
**A.** no significant effect

**Q.** And the “effect of rimonabant on baseline thermal latency” value ([3]; 10 mg/kg rimonabant, water bath 47 °C, 30 min, Fig. S5C)?
**A.** no significant effect
